Measurements from US20230065416A1, “CLATHRIN-CHIMETIC ANTIBODY RECEPTOR CONSTRUCTS FOR IMMUNE CELL ACTIVATION THERAPY IN VIVO” (NANOTOMER, INC., priority 2020, published 2023).
Read-outs that look alike come from different tables or passages of the source.

How the values were obtained:
[1] = Trafficking of Protin-102 in a B6 mouse, imaging 24 hours post-injection; type: in vivo
Description: The clathrin heavy chains were labeled with CF680 dye, a cyanine-based dye that reacts with alkyne and is commonly used for labeling antibodies. The clathrin heavy chains were then injected into a C57BL/6 (B6) mouse, and imaging was performed 24 hours post-injection.

[2] = tested on: B16 melanoma; experiment: Therapeutic study in C57BL/6 mice bearing B16 tumors; type: in vivo, mouse
Text: (§1) BALB/c (female; 7-8 weeks) were subcutaneously implanted by 4T1 (100,000 cells; ATCC® CRL-2539™) on left 4th mammary glands. C57BL/6 (female; 7-8 weeks) were subcutaneously inoculated by B16 melanoma cells (100,000 cells; ATCC® CRL-6322™) or Lewis lung carcinoma line 1 cells (LLC1) (100,000 cells; ATCC® CRL-1642™) on right rear flanks. When the tumor size reached approximately 100 mm3, mice were randomly divided into three groups (n=6). […] The injection schedule was twice a week for two weeks. The tumor size and body weight of the mice were monitored during the treatment course. The length (l) and width (w) of the tumor were measured by a digital vernier caliper, and tumor volume (V) was defined as: […]V=l×w2/2. The tumor growth inhibition (TGI) was estimated by a following equation: TGI (%)=(Vc−Vt)/(Vc−Vi)×100, where Vc is the volume of the control tumor at the end of the study, Vt is the volume of drug-treated tumor at the end of the study, and Vi is the volume of tumor at the initial treatment.
Encouraged by the therapeutic effects for 4T1 tumor model, these protein-drug conjugates were further investigated for cancer therapy in a B16 (melanoma) or LLC1 (lung cancer)-bearing C57BL/6 mice. Drugs were now injected into mice having a tumor volume of approximately 100 mm3 according to the injection schedule identical to the 4T1 study.

[3] = tested on: breast cancer; settings: cited from earlier work
[4] = tested on: Lewis lung carcinoma line 1 (LLC1); experiment: Therapeutic study in C57BL/6 mice bearing LLC1 tumors; type: in vivo, mouse; settings: LLC1-bearing C57BL/6 mice; total dose of TAXOL® 32 μg/kg; n=6
Description: as §1, with “When” for “BALB/c (female; 7-8 weeks) were subcutaneously implanted by 4T1 (100,000 cells; ATCC® CRL-2539™) on left 4th mammary glands. C57BL/6 (female; 7-8 weeks) were subcutaneously inoculated by B16 melanoma cells (100,000 cells; ATCC® CRL-6322™) or Lewis lung carcinoma line 1 cells (LLC1) (100,000 cells; ATCC® CRL-1642™) on right rear flanks. When”

[5] = tested on: 4T1 murine breast cancer; experiment: Therapeutic study in BALB/c mice bearing 4T1 tumors; type: in vivo, mouse
Description: as §1, with “When” for “BALB/c (female; 7-8 weeks) were subcutaneously implanted by 4T1 (100,000 cells; ATCC® CRL-2539™) on left 4th mammary glands. C57BL/6 (female; 7-8 weeks) were subcutaneously inoculated by B16 melanoma cells (100,000 cells; ATCC® CRL-6322™) or Lewis lung carcinoma line 1 cells (LLC1) (100,000 cells; ATCC® CRL-1642™) on right rear flanks. When”
Before the diameter of tumor reached approximately 20 mm, the mice were euthanized, and lungs, livers, kidneys, hearts, pancreas, spleen, tumor, non-drain inguinal lymph nodes (far from tumor), and drain inguinal lymph nodes (located near tumor) were harvested and embedded in optimum cutting temperature (OCT) compound (TISSUE TEK™; SAKURA FINETEK™; Torrance, Calif.).
Representative photos for tumors from each group on day 27 post-implant are shown in top images of FIG. 14B. We evaluated the tumor growth inhibition (TGI) rate of each group (see the details in Method).

[6] = tested on: ovarian carcinoma; settings: cited from earlier work

Compound: Protin-102: clathrin heavy chain
- distribution among lymph nodes ([1]; compared with axillary and inguinal lymph nodes): concentration in the mesenteric lymph nodes
- organ with the highest level of signal ([1]; labeled with CF680): liver

Compound: CC(=O)O[C@H]1C(=O)[C@@]2(C)[C@H]([C@H](OC(=O)c3ccccc3)[C@]3(O)C[C@H](OC(=O)[C@H](O)[C@@H](NC(=O)c4ccccc4)c4ccccc4)C(C)=C1C3(C)C)[C@]1(OC(C)=O)CO[C@@H]1C[C@@H]2O [TAXOL®, 5beta, 20-epoxy-1,2alpha, 4,7beta, 10beta, 13alpha-hexahydroxytax-11-en-9-one 4,10-diacetate 2-benzoate 13-ester with (2R,3S)—N-benzoyl-3-phenylisoserine]
- TGI ([2]; B16): 47.3±1.2%
- tumor volume on the final day ([2]; B16-bearing C57BL/6 mice, total dose of TAXOL® 32 μg/kg, n=6): 1.29±0.50 ×103 mm3
- Response rate ([3]; regimen 135/3): 22%
- Survival, median ([3]; regimen 135/3): 10.5 months
- Time to Progression, median ([3]; regimen 135/3): 3.0 months
- Response rate ([3]; regimen 175/3): 28%
- Survival, median ([3]; regimen 175/3): 11.7 months
- Time to Progression, median ([3]; regimen 175/3): 4.2 months
- tumor volume on the final day [4]: 1.21±0.31 ×103 mm3
- final volume of the tumor ([5]; 4T1, day 27 post-implant, i.v. 2 times per week for 2 weeks, total dose of TAXOL® 32 μg/kg, n=6): 1.70±0.42 ×103 mm3
- tumor growth inhibition (TGI) rate ([5]; 4T1, end of study, identical dose of TAXOL® (8 μg/kg per injection), n=6): 26.2±1.2%
- nodules in the lung (metastasis of 4T1 tumor) ([5]; 4T1-bearing mice, day 27 post-implant): nodules were widely located in the lung
- Response rate ([6]; regimen 135/24): 13.2%
- Survival, median ([6]; regimen 135/24): 10.7 months
- Time to Progression, median ([6]; regimen 135/24): 2.8 months
- Response rate ([6]; regimen 155/3 as printed): 15.2%
- Time to Progression, median ([6]; regimen 155/3 as printed): 3.1 months
- Response rate ([6]; regimen 175/3 (mg/m2 / infusion h)): 14.6%
- Survival, median ([6]; regimen 175/3): 11.5 months
- Time to Progression, median ([6]; regimen 175/3): 4.4 months
- Response rate ([6]; regimen 175/4): 21.7%
- Survival, median ([6]; regimen 175/4): 11.8 months
- Time to Progression, median ([6]; regimen 175/4): 4.2 months
